{"source": "patent EP0247900A1", "about": "“Topical methotrexate preparation for the treatment of hyperproliferative epithelial disease” (THE REGENTS OF THE UNIVERSITY OF CALIFORNIA, priority 1986, dated 1987)", "key": {"[1]": {"assay": "In vitro percutaneous penetration of MTX in glass diffusion cells", "method": "Methotrexate was obtained from Lederle Laboratories, Pearl River, NY. Methotrexate (3',5',7-^3H)sodium (250 mCi/mmol) was obtained from Amersham and prior to use was purified by chromatography on thin-layer cellulose plates in 0.006 M potassium phosphate buffer, pH 6.0. Vehicle N was obtained from the Neutrogena Corporation. Los Angeles, CA.\nThe percutaneous penetration of MTX was measured in glass diffusion cells as previously described. McCullough et al (1976) J Invest Derm 66:103-107. Excised human skin obtained from abdominoplasty was used for these studies. First, 0.5 ml containing 10 µCi methotrexate-^3H and cold methotrexate to give a final concentration of 2% in various vehicles was applied to the epidermal surface (0.2 ml/cm^2). A total of […] methotrexate was applied to each diffusion cell. The dermal reservoir contained phosphate buffered saline. Three diffusion cells were run for each vehicle. Diffusion cells were incubated with constant stirring at 28°C. Methotrexate penetration was followed at various time points up to 48 hr by liquid scintillation counting. The test solution was removed after the 48 hr incubation period, and the epidermal surface was rinsed three times with vehicle in which the drug being tested was dissolved. […] The epidermis was separated by heating the skin for 1 min on a hot plate at 60°C. MTX was extracted from the epidermis and dermis utilizing the techniques described by Werkheiser et al (1962) J Pharmacol Exp Ther 137:162-166, which specifically disassociates MTX from cellular bound proteins. The stratum corneum was removed by repeated stripping with cellophane tape until the skin glistened.\nIn vitro percutaneous penetration studies were carried out according to the methods of Example I with formulations of a topical gel containing about 3% Azone and various concentrations of MTX.\nEmploying the methods described in Example I, various vehicles containing 2% by weight of tritiated MTX were tested in vitro on human skin.\nAdditional studies with the mini-pig model, as described in Example IV, were conducted to test various carriers with different concentrations of MTX and Azone. Formulations were applied daily for 7 days. Three sites per treatment area were injected with ^3H-UdR. Autoradiographs were scored at 4 wk. Techniques as described in Examples I and II were employed to measure percutaneous penetration and DNA synthesis.\nVarious vehicle formulations were evaluated in vitro at various MTX concentrations for penetration of MTX into the epidermis. Penetration was evaluated as described in Example I. Unless otherwise noted, all vehicles were a gel formulation that contained 3% Azone."}, "epidermal DNA synthesis [2]": {"system": "epidermal DNA synthesis", "assay": "In vivo epidermal DNA synthesis (tritiated deoxyuridine incorporation) after topical MTX in hairless mice", "set-up": "species or system HRS/J albino hairless mice", "conditions": "for suppression of epidermal DNA synthesis in treated back skin: compared to Vehicle N treated control", "excerpt": "Deoxyuridine (6-^3H) (25 Ci/mmol) was obtained from New England Nuclear. Other materials were obtained as described in Example I.\n(§1) HRS/J albino hairless mice, age 2-3 months, were used for these experiments. For induction of the […] fatty acid deficiency, 3-week-old animals were fed an essential fatty acid deficient diet (Teklad) for 60 days.\n(§2) Six to ten mice were used for each treatment group. Tritiated deoxyuridine was utilized as a precursor for assaying the effects of methotrexate on the de novo pathway for epidermal DNA synthesis. The incorporation of tritiated deoxyuridine into DNA depends on the normal functioning of dihydrofolate reductase which is blocked by methotrexate. At selected time points after single or repeated topical MTX applications, mice were injected IP with tritiated deoxyuridine (50-100 uCi) for measurement of epidermal DNA synthesis in treated backskin to determine the local effect of MTX. DNA synthesis was simultaneously measured in untreated abdominal skin of Vehicle N and MTX-treated animals to determine systemic effects of MTX at a distant site. One hour after administration of isotope, animals were sacrificed by cervical dislocation, and treated backskin and untreated abdominal skin was obtained. Epidermis was removed after incubating the skin specimens for 1 hr at 37°C in 2 M sodium bromide. DNA was extracted and assayed using the technique described by Halprin et al (1979) J Invest Derm 73:359-363. Results of epidermal DNA synthesis were calculated as counts/minute/ug of DNA. The effects of MTX treatment on DNA synthesis of the back and abdomen were expressed as percentage of the DNA synthesis of Vehicle N treated back skin and untreated abdomin in control animals."}, "hairless mouse skin": {"system": "hairless mouse skin", "assay": "Skin changes after topical MTX in normal and essential fatty acid deficient hairless mice", "format": "in vivo, HRS/J albino hairless mice", "conditions": "three daily applications of 2% MTX in Vehicle N, untreated abdominal skin not similarly affected", "method": "as §1\nas §2, with “Topical MTX preparations at various concentrations or vehicle control in the amount of 0.05 ml were applied to the backskin area of 1.5 cm by 3 cm daily for 1 or 3 days. Six” for “Six”, “One hour after administration of isotope, animals were sacrificed by cervical dislocation, and treated backskin and untreated abdominal skin was obtained. Epidermis was removed after incubating the skin specimens for 1 hr at 37°C in 2 M sodium bromide. DNA was extracted and assayed using the technique described by Halprin et al (1979) J Invest Derm 73:359-363.” left out, “animals. […]” for “animals.”"}, "epidermal DNA synthesis [3]": {"system": "epidermal DNA synthesis", "assay": "In vivo epidermal labeling index (DNA synthesis) in the mini-pig model", "set-up": "species or system Mini-pigs", "conditions": "for Epidermal Labeling Index: applied daily for 7 days, mini-pig dorsal skin", "method": "The formulations of Example III were tested for effect on in vivo DNA synthesis in the mini-pig model. Mini-pig skin closely resembles human skin and the effect of a drug on epidermal cell proliferation is a recognized test for the effectiveness of therapeutic protocols for hyperproliferative skin disease.\nMini-pigs were obtained from Charles River Laboratories, Inc. (Wilmington, MA). Drug preparations were applied to small areas of dorsal skin (ca 1 inch square) according to the selected application schedules. Six hours following the last drug application, tritiated thymidine was injected into the drug treatment sites for autoradiographic assessment of epidermal proliferation as measured by epidermal labeling index. Weinstein & and Van Scott, (1965) J. Invest. Derm. 44:413\nA vehicle containing various concentrations of MTX was applied daily for 7 days. Tritiated deoxyuridine was injected into the treatment sites on day 7, as well as in untreated control area. DNA synthesis was measured as described in Example II.\nFormulations were applied daily for 7 days. […] Autoradiographs were scored at 4 wk."}, "[4]": {"system": "psoriatic epidermal DNA synthesis", "assay": "Intradermal administration of MTX", "format": "in vivo", "conditions": "administered intradermally, compared with systemic MTX", "excerpt": "Thus, it has been discovered that MTX or its analogs can be administered topically in an effective manner to skin afflicted with a hyperproliferative epithelial disease avoiding, therefore, the serious side effects associated with systemic MTX administration."}, "psoriasis": {"system": "psoriasis", "conditions": "0.1% and 0.5% MTX in vehicle with 2.5% C-10-methylsulfoxide, six patients, daily for nine days; cited from earlier work"}, "[5]": {"conditions": "prior-art topical MTX preparations, in vitro and in vivo; cited from earlier work"}, "[6]": {"conditions": "0.1% Methotrexate in topical gel containing about 3% Azone"}, "[7]": {"conditions": "0.5% Methotrexate in topical gel containing about 3% Azone"}, "[8]": {"conditions": "1.0% Methotrexate in topical gel containing about 3% Azone"}}, "data": [{"compound": "CN(Cc1cnc2nc(N)nc(N)c2n1)c1ccc(C(=O)N[C@@H](CCC(=O)O)C(=O)O)cc1", "note": "[MTX, Methotrexate]", "values": [{"measurement": "Cumulative Penetration 48 hr", "setting": "[1]; [6]", "value": "0.6 ± 0.2", "unit": "µg"}, {"measurement": "Epidermal Content", "setting": "[1]; [6]", "value": "3.9 ± 0.3", "unit": "µg"}, {"measurement": "Cumulative Penetration 48 hr", "setting": "[1]; [7]", "value": "7.5 ± 1.4", "unit": "µg"}, {"measurement": "Epidermal Content", "setting": "[1]; [7]", "value": "24.1 ± 8.1", "unit": "µg"}, {"measurement": "Cumulative Penetration 48 hr", "setting": "[1]; [8]", "value": "18.7 ± 6.1", "unit": "µg"}, {"measurement": "Epidermal Content", "setting": "[1]; [8]", "value": "36.0 ± 11.7", "unit": "µg"}, {"measurement": "effect on DNA synthesis in back skin and untreated abdominal skin", "setting": "epidermal DNA synthesis [2]; four daily applications of MTX in Vehicle N", "value": "total suppression of DNA synthesis"}, {"measurement": "effect on DNA synthesis", "setting": "epidermal DNA synthesis [2]; single application of MTX in Vehicle N", "value": "ineffective"}, {"measurement": "effect on DNA synthesis in treated skin", "setting": "epidermal DNA synthesis [2]; three daily applications of 1% MTX in Vehicle N, 6 hr after the last treatment", "value": "produced inhibition of DNA synthesis"}, {"measurement": "systemic effect on DNA synthesis in untreated abdominal skin", "setting": "epidermal DNA synthesis [2]; three daily applications of 2% MTX in Vehicle N, at 54 hr (6 hr after the last treatment)", "value": "no significant (p < 0.001) systemic methotrexate effect"}, {"measurement": "suppression of epidermal DNA synthesis in treated back skin", "setting": "epidermal DNA synthesis [2]; three daily applications of 2% MTX in Vehicle N, at 54 hr", "value": 50, "unit": "%"}, {"measurement": "local and systemic effect on DNA synthesis", "setting": "epidermal DNA synthesis [2]; three daily applications of 2% MTX in Vehicle N, at 72 hr, 24 hr after the last treatment", "value": "both local and systemic effects were obtained"}, {"measurement": "suppression of epidermal DNA synthesis in treated back skin", "setting": "epidermal DNA synthesis [2]; three daily applications of 2% MTX in Vehicle N, at 72 hr", "value": 75, "unit": "%"}, {"measurement": "effect on DNA synthesis", "setting": "epidermal DNA synthesis [2]; three daily applications of MTX in Vehicle N at concentrations lower than 1%", "value": "no local or systemic effect"}, {"measurement": "effect on epidermal DNA synthesis", "setting": "epidermal DNA synthesis [2]; topical MTX (0.5%) in N-decylmethylsulfoxide", "value": "no effect on epidermal DNA synthesis"}, {"measurement": "effect on epidermis of treated skin", "setting": "hairless mouse skin", "value": "marked epidermal atrophy"}, {"measurement": "Epidermal Labeling Index", "setting": "epidermal DNA synthesis [3]; 0.5% Methotrexate in gel with about 3% Azone", "value": "0.0 ± 0.0", "unit": "%"}, {"measurement": "labeling intensity (rate of DNA synthesis)", "setting": "epidermal DNA synthesis [3]; 0.5% and 1.0% MTX in Azone gel, daily for 7 days, compared to the vehicle control", "value": "slight decrease in labeling intensity"}, {"measurement": "Epidermal Labeling Index", "setting": "epidermal DNA synthesis [3]; 1.0% Methotrexate in gel with about 3% Azone", "value": "0.8 ± 1.4", "unit": "%"}, {"measurement": "biochemical effects and biological actions", "setting": "[4]", "value": "same biochemical effects (inhibition of psoriatic epidermal DNA synthesis) and biological actions (mitotic inhibition and damaged cell production) as systemic MTX"}, {"measurement": "clinical improvement", "setting": "psoriasis", "value": "no significant improvement in any of the patients"}, {"measurement": "percutaneous penetration of human skin", "setting": "[5]", "value": "negligible percutaneous penetration"}]}]}
